Results reported in ChEMBL document CHEMBL3044533, “Alkyl, aryl, alkylarylquinoline, and related alkaloids” (2007).
Values after ≈ are worked out from the molar mass of the structure shown.

Experiments:
Type in all cases: functional
[1] = tested on: Phomopsis obscurans; test: Growth inhibition of Phomopsis obscurans at 30 uM after 48 hr by microtiter assay; conditions: Paraphomopsis obscurans, read-out: GI
[2] = tested on: Plasmopara viticola; test: Growth inhibition of Plasmopara viticola at 30 uM after 48 hr by microtiter assay; conditions: read-out: GI
[3] = tested on: Colletotrichum gloeosporioides; test: Growth inhibition of Colletotrichum gloeosporioides at 100 uM after 48 hr by microtiter assay; conditions: read-out: GI
[4] = tested on: Colletotrichum fragariae; test: Growth inhibition of Colletotrichum fragariae at 300 uM after 48 hr by microtiter assay; conditions: read-out: GI
[5] = tested on: Colletotrichum acutatum; test: Growth inhibition of Colletotrichum acutatum at 300 uM after 48 hr by microtiter assay; conditions: read-out: GI
[6] = tested on: Phomopsis obscurans; test: Growth inhibition of Phomopsis obscurans at 100 uM after 48 hr by microtiter assay; conditions: Paraphomopsis obscurans, read-out: GI
[7] = tested on: Fusarium oxysporum; test: Growth inhibition of Fusarium oxysporum at 300 uM after 48 hr by microtiter assay; conditions: read-out: GI
[8] = tested on: Xanthomonas campestris pv. oryzae; test: Antibacterial activity against Xanthomonas campestris pv. oryzae
[9] = tested on: Pectobacterium carotovorum; test: Antibacterial activity against Pectobacterium carotovorum
[10] = tested on: Ralstonia solanacearum; test: Antibacterial activity against Ralstonia solanacearum
[11] = tested on: Agrobacterium tumefaciens; test: Antibacterial activity against Agrobacterium tumefaciens
[12] = tested on: Clavibacter michiganensis; test: Antibacterial activity against Clavibacter michiganensis
[13] = tested on: Bipolaris oryzae; test: Growth inhibition of Bipolaris oryzae at 10 ug/ml; conditions: read-out: GI
[14] = tested on: Gaeumannomyces graminis; test: Growth inhibition of Gaeumannomyces graminis at 10 ug/ml; conditions: read-out: GI
[15] = tested on: Pyricularia oryzae; test: Growth inhibition of Magnaporthe oryzae at 10 ug/ml; conditions: read-out: GI
[16] = tested on: Rhizoctonia solani; test: Growth inhibition of Rhizoctonia solani at 10 ug/ml; conditions: read-out: GI
[17] = tested on: Verticillium dahliae; test: Growth inhibition of Verticillium dahliae at 10 ug/ml; conditions: read-out: GI
[18] = tested on: Globisporangium ultimum; test: Growth inhibition of Pythium ultimum at 10 ug/ml; conditions: read-out: GI
[19] = tested on: Fusarium oxysporum; test: Growth inhibition of Fusarium oxysporum at 10 ug/ml; conditions: read-out: GI

SMILES	inhibition of growth at 300 µM [4] [%]	inhibition of growth at 300 µM [5] [%]	inhibition of growth at 300 µM [7] [%]	MIC [8] [µg/mL]	MIC [9] [µg/mL]	MIC [10] [µg/mL]	MIC [11] [µg/mL]	MIC [12] [µg/mL]	inhibition of growth at 10 µg/mL [13] [%]	inhibition of growth at 10 µg/mL [14] [%]	inhibition of growth at 10 µg/mL [15] [%]	inhibition of growth at 10 µg/mL [16] [%]	inhibition of growth at 10 µg/mL [17] [%]	inhibition of growth at 10 µg/mL [18] [%]	inhibition of growth at 10 µg/mL [19] [%]	also measured
Cn1c(CCCCCCc2ccc3c(c2)OCO3)cc(=O)c2ccccc21	57	57														inhibition of growth at 30 µM [1]: 100%; inhibition of growth at 30 µM [2]: 100%; inhibition of growth at 100 µM [3]: 67.7%
CCCCNC(=O)n1c(NC(=O)OC)nc2ccccc21 [BENOMYL]	76	33	77													inhibition of growth at 100 µM [6]: 100%
CCCCCC/C=C/Cc1[nH]c2ccccc2c(=O)c1C				> 20	> 20	> 20	> 20	10 (≈ 35.3 µM)	68	54.7	49.9	58.1	74.9	0	41.1	
CCCC/C=C/Cc1[nH]c2ccccc2c(=O)c1C				50 (≈ 196 µM)	> 50	> 50	> 50	10 (≈ 39.2 µM)	63.9	17.1	70.8	50.9	82.8	37.7	34.4	
CCCCCCCCCc1cc(=O)c2ccccc2[nH]1		50	37													
O=C1C2CC=CCC2C(=O)N1SC(Cl)(Cl)Cl (stereo unspecified) [CAPTAN]			100													
